From patent US7994209B2, “3-phenoxymethylpyrrolidine compounds” (Theravance, Inc., priority 2009, dated 2011)

Columns and labels:
hNET = hNET (Homo sapiens, UniProt P23975); experiment: hNET membrane radioligand binding assay (3H-nisoxetine), Assay 1
hSERT = hSERT (Homo sapiens, UniProt P31645); experiment: hSERT membrane radioligand binding assay (3H-citalopram), Assay 1; conditions: SERT pKi, hSERT HEK-293 membranes, 1.0 nM 3H-citalopram; values given as lower bounds
hSERT, sequence (P31645 whole entry): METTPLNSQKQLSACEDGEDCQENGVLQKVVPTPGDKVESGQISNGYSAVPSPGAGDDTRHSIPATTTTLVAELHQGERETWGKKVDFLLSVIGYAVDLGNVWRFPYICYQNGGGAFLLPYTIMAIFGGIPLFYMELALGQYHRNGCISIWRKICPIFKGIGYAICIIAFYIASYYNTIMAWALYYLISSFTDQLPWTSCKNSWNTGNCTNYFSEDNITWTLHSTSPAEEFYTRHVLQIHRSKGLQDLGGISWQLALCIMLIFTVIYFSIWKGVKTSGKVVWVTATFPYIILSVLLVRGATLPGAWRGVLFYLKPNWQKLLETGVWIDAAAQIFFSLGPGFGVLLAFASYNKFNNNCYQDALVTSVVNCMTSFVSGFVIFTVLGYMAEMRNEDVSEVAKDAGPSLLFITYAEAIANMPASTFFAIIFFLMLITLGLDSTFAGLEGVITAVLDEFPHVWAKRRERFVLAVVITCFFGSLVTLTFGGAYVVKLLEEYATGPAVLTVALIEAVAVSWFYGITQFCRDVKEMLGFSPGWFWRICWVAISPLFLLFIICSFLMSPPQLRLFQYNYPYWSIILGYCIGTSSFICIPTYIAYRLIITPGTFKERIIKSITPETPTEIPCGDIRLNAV

hNET, sequence (P23975 whole entry): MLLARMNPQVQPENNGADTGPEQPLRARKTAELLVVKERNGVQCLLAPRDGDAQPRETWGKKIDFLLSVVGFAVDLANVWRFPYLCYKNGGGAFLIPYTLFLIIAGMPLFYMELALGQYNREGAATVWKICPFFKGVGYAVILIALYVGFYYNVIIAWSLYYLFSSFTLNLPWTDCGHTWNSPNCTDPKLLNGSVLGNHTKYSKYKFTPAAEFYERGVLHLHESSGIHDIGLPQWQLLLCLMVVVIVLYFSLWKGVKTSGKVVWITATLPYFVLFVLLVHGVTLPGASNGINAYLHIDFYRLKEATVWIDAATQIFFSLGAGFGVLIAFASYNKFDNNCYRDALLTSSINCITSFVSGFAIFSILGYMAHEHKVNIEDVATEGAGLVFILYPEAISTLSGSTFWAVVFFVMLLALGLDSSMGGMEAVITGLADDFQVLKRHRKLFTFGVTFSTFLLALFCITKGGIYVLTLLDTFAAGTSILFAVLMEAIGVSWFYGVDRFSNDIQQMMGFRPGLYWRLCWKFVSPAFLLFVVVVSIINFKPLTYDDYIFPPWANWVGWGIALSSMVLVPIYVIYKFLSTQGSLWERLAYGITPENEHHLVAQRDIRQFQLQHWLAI

Structure (SMILES)	Ki (hNET) [nM]	Ki (hSERT) [nM]
CC(C)[C@@H](Oc1c(Cl)cccc1Cl)[C@H]1CCNC1 [Example 6-29, (S)-3-[(R)-1-(2,6-Dichlorophenoxy)-2-methylpropyl]pyrrolidine]	≤ 100	≤ 100
Cc1cc(Cl)ccc1O[C@H](C(C)C)[C@H]1CCNC1 [Example 6-44, (S)-3-[(R)-1-(4-Chloro-2-methylphenoxy)-2-methylpropyl]pyrrolidine]	≤ 100	≤ 10
CC(C)[C@@H](Oc1ccc(Cl)cc1C(F)(F)F)[C@H]1CCNC1 [Example 6-52, (S)-3-[(R)-1-(4-Chloro-2-trifluoromethylphenoxy)-2-methylpropyl]pyrrolidine]	≤ 100	≤ 100
CC(C)[C@H](Oc1ccccc1[N+](=O)[O-])[C@H]1CCNC1 [Example 6-53, (S)-3-[(S)-2-Methyl-1-(2-nitrophenoxy)propyl]pyrrolidine]	≤ 10	≤ 100
CC(C)[C@H](Oc1cccc(F)c1)[C@H]1CCNC1 [Example 6-54, (S)-3-[(S)-1-(3-Fluorophenoxy)-2-methylpropyl]pyrrolidine]	≤ 10	≤ 100
CC(C)C(Oc1cccc(F)c1)C1CCNC1 (stereo not shown) [Example 6-55, 3-[1-(3-Fluorophenoxy)-2-methylpropyl]pyrrolidine]	≤ 100	≤ 100
CC(C)C(Oc1cc(Cl)cc(Cl)c1)C1CCNC1 (stereo not shown) [Example 6-67, 3-[1(3,5-Dichlorophenoxy)-2-methylpropyl]pyrrolidine]	≤ 100	≤ 10
CC(C)C(Oc1cccc(C(F)(F)F)c1)C1CCNC1 (stereo not shown) [Example 6-72, 3-[2-Methyl-1-(3-trifluoromethylphenoxy)-propyl]pyrrolidine]	≤ 100	≤ 10
CC(C)C(Oc1ccc(F)cc1)C1CCNC1 (stereo not shown) [Example 6-73, 3-[1-(4-Fluorophenoxy)-2-methylpropyl]pyrrolidine]	≤ 100	≤ 100
CC(C)[C@@H](Oc1ccc(Cl)cc1)[C@H]1CCNC1 [Example 6-76, (S)-3-[(R)-1-(4-Chlorophenoxy)-2-methylpropyl]pyrrolidine]	≤ 100	≤ 10
CC(C)C(Oc1ccc(C(F)(F)F)cc1)C1CCNC1 (stereo not shown) [Example 6-77, 3-[2-Methyl-1-(4-trifluoromethylphenoxy)propyl]pyrrolidine]	≤ 100	≤ 10
CCCC[C@@H](Oc1ccc(C(F)(F)F)cc1)[C@H]1CCNC1 [Example 8-5, (S)-3-[(R)-1-(4-Trifluoromethylphenoxy)pentyl]pyrrolidine]	≤ 100	≤ 10
CCCC[C@@H](Oc1cccc(Cl)c1Cl)[C@H]1CCNC1 [Example 8-6, (S)-3-[(R)-1-(2,3-Dichlorophenoxy)pentyl]pyrrolidine]	≤ 10	≤ 10
CCCC[C@@H](Oc1cccc(Cl)c1C)[C@H]1CCNC1 [Example 8-7, (S)-3-[(R)-1-(3-Chloro-2-methylphenoxy)pentyl]pyrrolidine]	≤ 10	≤ 10
CCCC[C@@H](Oc1ccc(Cl)cc1Cl)[C@H]1CCNC1 [Example 8-8, (S)-3-[(R)-1-(2,4-Dichlorophenoxy)pentyl]pyrrolidine]	≤ 10	≤ 10
CCCC[C@@H](Oc1ccc(C)cc1Cl)[C@H]1CCNC1 [Example 8-9, (S)-3-[(R)-1-(2-Chloro-4-methylphenoxy)pentyl]pyrrolidine]	≤ 100	≤ 10
CCCC[C@@H](Oc1ccc(Cl)cc1C)[C@H]1CCNC1 [Example 8-10, (S)-3-[(R)-1-(4-Chloro-2-methylphenoxy)pentyl]pyrrolidine]	≤ 10	≤ 10
CCCC[C@@H](Oc1ccc(Cl)cc1C(F)(F)F)[C@H]1CCNC1 [Example 8-11, (S)-3-[(R)-1-(4-Chloro-2-trifluoromethylphenoxy)pentyl]pyrrolidine]	≤ 10	≤ 10
CC(C)CC(Oc1ccccc1F)C1CCNC1 (stereo not shown) [Example 10-2, 3-[1-(2-Fluorophenoxy)-3-methylbutyl]pyrrolidine]	≤ 10	≤ 100
CC(C)CC(Oc1cccc(F)c1)C1CCNC1 (stereo not shown) [Example 10-6, 3-[1-(3-Fluorophenoxy)-3-methylbutyl]pyrrolidine]	≤ 10	≤ 100
CC(C)C[C@H](Oc1ccc(Cl)cc1)[C@@H]1CCNC1 [Example 10-12, (R)-3-[(S)-1-(4-Chlorophenoxy)-3-methylbutyl]pyrrolidine]	≤ 100	≤ 10
CC(C)C[C@@H](Oc1ccc(Cl)cc1)[C@@H]1CCNC1 [Example 10-14, (R)-3-[(R)-1-(4-Chlorophenoxy)-3-methylbutyl]pyrrolidine]	≤ 100	≤ 10

Structure (SMILES)	Ki (hNET) [nM]	Ki (hSERT) [nM]
CC(C)C[C@@H](Oc1ccc(C(F)(F)F)cc1)[C@H]1CCNC1 [Example 10-17, (S)-3-[(R)-3-Methyl-1-(4-trifluoromethylphenoxy)butyl]pyrrolidine]	≤ 100	≤ 10
CC(C)C[C@H](Oc1cccc(Cl)c1C(F)(F)F)[C@@H]1CCNC1 [Example 10-37, (R)-3-[(S)-1-(3-Chloro-2-trifluoromethylphenoxy)-3-methylbutyl]pyrrolidine]	≤ 100	≤ 10
CC(=O)c1c(F)cccc1O[C@@H](CC(C)C)[C@H]1CCNC1 [Example 10-38, 1-[2-Fluoro-6-((S)-3-methyl-1-(S)-pyrrolidin-3-yl-butoxy)phenyl]ethanone]	≤ 10	≤ 100
CC(C)C[C@H](Oc1ccc(Cl)cc1Cl)[C@@H]1CCNC1 [Example 10-43, (R)-3-[(S)-1-(2,4-Dichlorophenoxy)-3-methylbutyl]pyrrolidine]	≤ 100	≤ 10
Cc1cc(Cl)ccc1O[C@@H](CC(C)C)[C@@H]1CCNC1 [Example 10-46, (R)-3-[(S)-1-(4-Chloro-2-methylphenoxy)-3-methylbutyl]pyrrolidine]	≤ 100	≤ 10
CSc1ccccc1O[C@H](C1CC1)[C@H]1CCNC1 [Example 16-4, (S)-3-[(R)cyclopropyl-(2-methylsulfanylphenoxy)methyl]pyrrolidine]	≤ 10	≤ 100
CSc1ccccc1O[C@@H](C1CC1)[C@H]1CCNC1 [Example 16-5, (S)-3-[(S)cyclopropyl-(2-methylsulfanylphenoxy)methyl]pyrrolidine]	≤ 10	≤ 100
Clc1cccc(O[C@@H](C2CC2)[C@@H]2CCNC2)c1Cl [Example 16-6, (R)-3-[(S)cyclopropyl-(2,3-dichlorophenoxy)methyl]pyrrolidine]	≤ 100	≤ 10
FC(F)(F)c1c(Cl)cccc1O[C@H](C1CC1)[C@H]1CCNC1 [Example 16-17, (S)-3-[(R)-(3-Chloro-2-trifluoromethylphenoxy)cyclopropylmethyl]pyrrolidine]	≤ 100	≤ 10
COc1c(Cl)cccc1O[C@@H](C1CC1)[C@H]1CCNC1 [Example 16-18, (S)-3-[(S)-(3-Chloro-2-methoxyphenoxy)cyclopropylmethyl]pyrrolidine]	≤ 10	≤ 100
Clc1ccc(O[C@H](C2CC2)[C@H]2CCNC2)c(Cl)c1 [Example 16-20, (S)-3-[(R)cyclopropyl-(2,4-dichlorophenoxy)methyl]pyrrolidine]	≤ 100	≤ 10
Clc1ccc(O[C@H](C2CC2)[C@@H]2CCNC2)c(Cl)c1 [Example 16-21, (R)-3-[(R)cyclopropyl-(2,4-dichlorophenoxy)methyl]pyrrolidine]	≤ 100	≤ 10
Cc1ccc(O[C@H](C2CC2)[C@@H]2CCNC2)c(Cl)c1 [Example 16-24, (R)-3-[(R)-(2-Chloro-4-methylphenoxy)cyclopropylmethyl]pyrrolidine]	≤ 100	≤ 10
Cc1ccc(O[C@H](C2CC2)[C@@H]2CCNC2)c(Br)c1 [Example 16-26, (R)-3-[(R)-(2-Bromo-4-methylphenoxy)cyclopropylmethyl]pyrrolidine]	≤ 100	≤ 10
Cc1ccc(O[C@H](C2CC2)[C@@H]2CCNC2)c(C)c1 [Example 16-27, (R)-3-[(R)cyclopropyl-(2,4-dimethylphenoxy)-methyl]pyrrolidine]	≤ 100	≤ 10
Cc1cc(Cl)ccc1O[C@H](C1CC1)[C@H]1CCNC1 [Example 16-30, (S)-3-[(R)-(4-Chloro-2-methylphenoxy)cyclopropylmethyl]pyrrolidine]	≤ 100	≤ 10
Cc1cc(Cl)ccc1O[C@@H](C1CC1)[C@@H]1CCNC1 [Example 16-31, (R)-3-[(S)-(4-Chloro-2-methylphenoxy)cyclopropylmethyl]pyrrolidine]	≤ 100	≤ 10
Cc1cc(Cl)ccc1O[C@H](C1CC1)[C@@H]1CCNC1 [Example 16-32, (R)-3-[(R)-(4-Chloro-2-methylphenoxy)cyclopropylmethyl]pyrrolidine]	≤ 100	≤ 10
FC(F)(F)c1cc(Cl)ccc1O[C@@H](C1CC1)[C@H]1CCNC1 [Example 16-35, (S)-3-[(S)-(4-Chloro-2-trifluoromethylphenoxy)cyclopropylmethyl]pyrrolidine]	≤ 10	≤ 10
FC(F)(F)c1cc(Cl)ccc1O[C@H](C1CC1)[C@@H]1CCNC1 [Example 16-36, (R)-3-[(R)-(4-Chloro-2-trifluoromethylphenoxy)cyclopropylmethyl]pyrrolidine]	≤ 100	≤ 100
COc1cc(F)ccc1O[C@H](C1CC1)[C@H]1CCNC1 [Example 16-39, (S)-3-[(R)cyclopropyl-(4-fluoro-2-methoxyphenoxy)methyl]pyrrolidine]	≤ 100	≤ 10
COc1cc(F)ccc1O[C@@H](C1CC1)[C@H]1CCNC1 [Example 16-40, (S)-3-[(S)cyclopropyl-(4-fluoro-2-methoxyphenoxy)methyl]pyrrolidine]	≤ 10	≤ 100
